From patent US9731027B2, “Somatostatin-dopamine chimeric analogs” (Ipsen Pharma S.A.S., priority 2012, dated 2017) come the findings set out here.

Where two headings read alike, the source gives them in different places. Bridge positions count the residues as written; N and C are the ends. Square brackets hold non-standard residues; d marks the D form. Peptide text beside a SMILES is read from it. * marks the point of attachment. X2 = CN1C[C@H](CSCC(=O)*)C[C@@H]2c3cccc4[nH]cc(c34)C[C@H]21

For experiment [1], the system named is pituitary tumor cells of acromegalic patients presenting with macroadenoma. In words: Human pituitary adenoma cell growth hormone release assay. It counts as cell-based. The note with it: 18 hours incubation, AlphaLISA GH immunoassay; FIG. 5. Here is the method:
FIG. 1 is a graph showing the Growth hormone suppressing activity of Compound 4 (see Table I hereinbelow for its chemical name and its corresponding structural representation) on pituitary tumor cells of acromegalic patients presenting with macroadenoma. Various concentrations of Compound 4 were added to the medium and the cells were incubated for 18 hours before measurement of Growth hormone levels in the medium using the AlphaLISA Growth Hormone Immunoassay Research kit (PerkinElmer).
Various concentrations of Compounds 4 and 5 were added to the medium and the cells were incubated for 18 hours before measurement of Growth hormone levels in the medium using the AlphaLISA Growth Hormone Immunoassay Research kit (PerkinElmer).
Acromegalic patients presenting with macroadenoma underwent transsphenoidal surgery and a portion of each tumor obtained at surgery was dissociated by enzymatic and mechanical methods. The cells were cultured in DMEM medium supplemented with 10% FBS and antibiotics for 3 days. The cells were then plated in multi-well tissue culture dishes coated with extracellular matrix from bovine endothelial corneal cells at a density of 3-5×10^4 cells/well in DMEM supplemented with 10% FBS and antibiotics. After 2-3 days of culture, the medium was changed to DMEM supplemented with 1% FBS, antibiotics and 1% ITS (insulin, transferrin and selenium).

In experiment [2] the target is T1, hSSTR2 (Homo sapiens, UniProt P30874).
T1 construct: host or cells: 'Cells expressing hSSTR2'
Description: Somatostatin receptor radioligand binding assay, hSSTR2.
Description: The affinities of a test compound for the human somatostatin receptors were determined by radioligand binding assays in CHO-K1 cells stably transfected with each of the human somatostatin receptor subtypes, hSSTR1-5. The cDNA coding sequences of hSSTR1 (GenBank accession No. NM_001049.1), hSSTR2 (GenBank accession No. XM_012697.1), hSSTR3 (GenBank accession No. XM_009963.1), hSSTR4 (GenBank accession No. NM_001052.1), and hSSTR5 (GenBank accession No. XM_012565.1) were subcloned into the mammalian expression vector pcDNA3.1 (Life Technologies). Clonal cell lines stably expressing each of the somatostatin receptors were obtained by transfection into CHO-K1 cells (ATCC) and subsequently selected with culture media containing 0.8 mg/mL of G418 (Life Technologies).
Membranes for in vitro receptor binding assays were obtained by the following procedures. […] The supernatant containing the plasma membranes was centrifuged at 100,000×g for 30 minutes and the pellet was resuspended in buffer containing 20 mM glycine-glycine, 1 mM MgCl2, 250 mM sucrose, pH 7.2, for storage at −80° C. […]

The target in experiment [3] is T1, hSSTR2. Description: Intracellular calcium mobilization assay (FLIPR Calcium 4), hSSTR2. It counts as cell-based. Background: A change in cytosolic calcium serves as a functional read-out for many receptors and channels.
Description: The ability of select compounds according to the present invention to activate hSSTR2 and hDRD2 was determined by the intracellular calcium mobilization assay using FLIPR Calcium 4 assay kit (Molecular Devices).
Cells expressing hSSTR2 or hDRD2 were plated in 384-well microplates in tissue culture media and incubated for 16-24 hours at 37° C. in a humidified atmosphere with 5% CO2. Medium was replaced by loading buffer containing Hank's buffered saline, 20 mM HEPES, 2.5 mM probenecid and Calcium 4 dye, and the plates were incubated at 37° C. for 60 minutes.

T1 sequence (P30874 whole entry): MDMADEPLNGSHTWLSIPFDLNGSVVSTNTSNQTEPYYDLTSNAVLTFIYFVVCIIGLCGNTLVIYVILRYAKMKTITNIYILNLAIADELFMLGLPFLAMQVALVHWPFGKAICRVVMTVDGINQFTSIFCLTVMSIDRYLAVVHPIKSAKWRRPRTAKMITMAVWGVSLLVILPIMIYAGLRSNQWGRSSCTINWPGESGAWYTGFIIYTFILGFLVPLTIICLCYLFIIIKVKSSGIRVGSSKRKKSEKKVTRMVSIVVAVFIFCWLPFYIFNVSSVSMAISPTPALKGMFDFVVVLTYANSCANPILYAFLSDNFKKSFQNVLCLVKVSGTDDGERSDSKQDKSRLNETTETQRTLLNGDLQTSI

On to `C[C@@H](O)[C@@H]1NC(=O)[C@H](CCCCN)NC(=O)[C@@H](Cc2c[nH]c3ccccc23)NC(=O)[C@H](Cc2ccncc2)NC(=O)[C@H](Cc2ccccc2)NC(=O)[C@H](CCCNC(=N)N)NC(=O)[C@H](NC[C@H](Cc2ccc(O)cc2)NC(=O)CSC[C@@H]2C[C@@H]3c4cccc5[nH]cc(c45)C[C@H]3N(C)C2)CCCCNC(=O)[C@H](Cc2ccccc2)NC1=O` [Compound 4, Dop1-Tyr-psi(CH2NH)-cyclo(DLys-Arg-Phe-4Pal-DTrp-Lys-Thr-Phe)], for which the “Growth hormone suppressing activity compared to the parent somatostatin analogs” value in experiment [1] is “enhanced Growth hormone suppressing activity”.

On to `C[C@@H](O)[C@@H]1NC(=O)[C@H](CCCCN)NC(=O)[C@@H](Cc2c[nH]c3ccccc23)NC(=O)[C@H](Cc2ccccc2)NC(=O)[C@H](Cc2ccccc2)NC(=O)[C@H](CCCNC(=N)N)NC(=O)[C@H](NC[C@H](Cc2ccc(O)cc2)NC(=O)CSC[C@@H]2C[C@@H]3c4cccc5[nH]cc(c45)C[C@H]3N(C)C2)CCCCNC(=O)[C@H](Cc2ccc(F)cc2)NC1=O` [Compound 5, Dop1-Tyr-psi(CH2NH)-cyclo(DLys-Arg-Phe-Phe-DTrp-Lys-Thr-4FPhe)], for which the “Growth hormone suppressing activity compared to the parent somatostatin analogs” value in experiment [1] is “enhanced Growth hormone suppressing activity”.

A word on the Ki: it is a measure of affinity in units of concentration, obtained from inhibition or displacement. One may read the EC50 as the midpoint of the concentration-response curve. `C[C@@H](O)[C@@H]1NC(=O)[C@H](CCCCN)NC(=O)[C@@H](Cc2c[nH]c3ccccc23)NC(=O)[C@H](Cc2ccccc2)NC(=O)[C@H](Cc2ccccc2)NC(=O)[C@H](CCCNC(=N)N)NC(=O)[C@@H](NC[C@H](Cc2ccc(O)cc2)NC(=O)CSC[C@@H]2C[C@@H]3c4cccc5[nH]cc(c45)C[C@H]3N(C)C2)CCCNC(=O)[C@H](Cc2ccccc2)NC1=O` [Compound 43, Dop1-Tyr-psi(CH2NH)-cyclo(Orn-Arg-Phe-Phe-DTrp-Lys-Thr-Phe)] yielded a Ki at hSSTR2 [2] of 1.07 ± 0.39 nM. The EC50 on hSSTR2 [3] is 31.6 ± 4.3 nM.

The Emax is the size of the effect at its maximum, as opposed to the concentration needed. On to `C[C@@H](O)[C@@H]1NC(=O)[C@H](CCCCN)NC(=O)[C@@H](Cc2c[nH]c3ccccc23)NC(=O)[C@H](Cc2ccccc2)NC(=O)[C@H](Cc2ccccc2)NC(=O)[C@H](CCCNC(=N)N)NC(=O)[C@H](NC(=O)CSC[C@@H]2C[C@@H]3c4cccc5[nH]cc(c45)C[C@H]3N(C)C2)CCCCNC(=O)[C@H](Cc2ccccc2)NC1=O` [Compound 44, Dop1-cyclo(DLys-Arg-Phe-Phe-DTrp-Lys-Thr-Phe)] (X2-[dK]RFF[dW]KTF; lactam 1-C), for which the Emax on hSSTR2 [3] (read-out: hSSTR2 % Emax ± SEM) is 97.1 ± 5.9%.

Turning to `C[C@@H](O)[C@@H]1NC(=O)[C@H](CCCCN)NC(=O)[C@@H](Cc2c[nH]c3ccccc23)NC(=O)[C@H](Cc2ccc(O)cc2)NC(=O)[C@H](Cc2ccncc2)NC(=O)[C@H](CCCNC(=N)N)NC(=O)[C@H](NC[C@@H](Cc2ccc(O)cc2)NC(=O)CSC[C@@H]2C[C@@H]3c4cccc5[nH]cc(c45)C[C@H]3N(C)C2)CCCCNC(=O)[C@H](Cc2ccccc2)NC1=O` [Compound 46, Dop1-DTyr-psi(CH2NH)-cyclo(DLys-Arg-4Pal-Tyr-DTrp-Lys-Thr-Phe)], the inhibition constant (Ki) on hSSTR2 [2] (CHO-K1 membranes, [125I-Tyr]-seglitide, read-out: hSSTR2 Ki (nM) ± SEM) came to 0.52 ± 0.06 nM. Besides, the concentration giving a half-maximal response (EC50) on hSSTR2 [3] (calcium mobilization, cells expressing hSSTR2, read-out: hSSTR2 EC50 (nM) ± SEM) is 60 nM.
